From patent publication US20120053144A1, “Cobalamin Taxane Bioconjugates For Treating Eye Disease” (Osiris Therapeutics, Inc., priority 2009, published 2012)

Test system: choroidal neovascularization
Test: Choroidal neovascularization model (argon laser scarring, fluorescein leakage scoring)
Format: in vivo, rats
Settings: rat eye, laser-induced, treated on day 0
Description: Groups of rats were neovascularized by argon laser scarring on an eye. At the same time (day 0), the eye was immediately treated with the cobalamin-paclitaxel bioconjugate (CT-101) prepared in accordance with Example 1. Two concentrations, one higher and one lower, were tested. The treatment regimen also included a vehicle and KENACORT® RETARD (4% triamcinolone acetonide), as a positive control. The treated eyes were evaluated for inhibition of neovascularization on days 7, 14 and 21 by infusing the eye with fluorescein and scoring the leakage from each spot. The leakage of fluorescein on the photographies of the angiograms from each spot were evaluated by two examiners using an HRA (Heidelberg's Retinal Angiograph) in a masked fashion and graded as follows:
Score 1: slightly stained;
Score 2: moderate stained;
Score 3: strongly stained.

Substance: B12-5′-OCONH(CH2)5CO-Phe-Lys-PABC-7-Taxol [CT-101]
- inhibition of neovascularization (fluorescein leakage score) (Day 14, both concentrations (higher and lower)): measurable effect
- inhibition of neovascularization (fluorescein leakage score) (effect over 7 days relative to vehicle and positive control): marked angiogenic effect relative to the vehicle over 7 days, and was comparable in effect to the positive control
